Data as given in paper PMC10436550, “Subacute toxicity evaluations of LPM3480392 in rats, a full µ-opioid receptor biased agonist” (Frontiers in Pharmacology, 2023).

Tests used:
Sprague Dawley (SD) rats = experiment: Ophthalmic examination; type: in vivo, rat; details: 2.4 mg/kg/day; both genders; end of dosing phase and recovery phase
Description: The examination was conducted on rats in control and 2.4 mg/kg/day groups at the end of dosing phase (Day 27) and at the end of recovery phase (Recovery day 27). The mydriasis (eye instillation, 1-2 drops/eye) was conducted using Mydrin-P (compound tropicamide eye drops) before examination. Binocular indirect ophthalmoscope was used to examine conjunctiva, cornea, iris, lens, anterior chamber, posterior chamber and fundus.

[1] = Body weight, 4-week subacute toxicity study; type: in vivo, Sprague Dawley (SD) rats; details: female rats
Description: Body weight was recorded twice a week during the dosing phase and then once a week during the recovery phase. Terminal body weight was recorded before each necropsy for calculating the organ weight ratios.

[2] = 0.6 mg/kg/day, Prior to 1st dosing
[3] = 1.2 mg/kg/day, Prior to 1st dosing
[4] = 2.4 mg/kg/day, Prior to 1st dosing

For `Fc1ccc([C@]2(CCNCc3cccc(Cl)c3)CCO[C@]3(CCOC3)C2)nc1` [LPM3480392], the Ophthalmic examination findings (Sprague Dawley (SD) rats) was “No abnormalities”, the Body weight ([1]; 0.6 mg/kg/day, Day 6) was 194.0 ± 11.4 g and the “Body weight change rate” value ([1]; 0.6 mg/kg/day, Day 6) was 4.64%. For the same compound, the Body weight ([1]; 0.6 mg/kg/day, Day 9) was 201.1 ± 13.7 g, the “Body weight change rate” value ([1]; 0.6 mg/kg/day, Day 9) was 5.62% and the Body weight ([1]; 0.6 mg/kg/day, Day 13) was 209.5 ± 13.4 g. The “Body weight change rate” value ([1]; 0.6 mg/kg/day, Day 13) was 7.05%, the Body weight ([1]; 0.6 mg/kg/day, Day 16) was 214.4 ± 13.2 g and the “Body weight change rate” value ([1]; 0.6 mg/kg/day, Day 16) was 6.19%. For the same compound, the Body weight ([1]; 0.6 mg/kg/day, Day 20) was 224.2 ± 15.1 g, the “Body weight change rate” value ([1]; 0.6 mg/kg/day, Day 20) was 6.91% and the Body weight ([1]; 0.6 mg/kg/day, Day 23) was 228.1 ± 15.3 g. For the same compound, the “Body weight change rate” value ([1]; 0.6 mg/kg/day, Day 23) was 5.65%, the Body weight ([1]; 0.6 mg/kg/day, Day 27) was 236.2 ± 15.3 g and the “Body weight change rate” value ([1]; 0.6 mg/kg/day, Day 27) was 8.05%. For the same compound, the Body weight [1, 2] was 176.9 ± 7.3 g, the “Body weight change rate” value [1, 2] was −0.67% and the Body weight ([1]; 0.6 mg/kg/day, Recovery day 5) was 243.5 ± 9.3 g. For the same compound, the “Body weight change rate” value ([1]; 0.6 mg/kg/day, Recovery day 5) was 5.96%, the Body weight ([1]; 0.6 mg/kg/day, Recovery day 12) was 251.6 ± 10.2 g and the “Body weight change rate” value ([1]; 0.6 mg/kg/day, Recovery day 12) was 6.38%. The Body weight ([1]; 0.6 mg/kg/day, Recovery day 19) was 258.8 ± 12.5 g, the “Body weight change rate” value ([1]; 0.6 mg/kg/day, Recovery day 19) was 2.70% and the Body weight ([1]; 0.6 mg/kg/day, Recovery day 26) was 265.5 ± 15.7 g. The “Body weight change rate” value ([1]; 0.6 mg/kg/day, Recovery day 26) was 3.11%, the Body weight ([1]; 1.2 mg/kg/day, Day 6) was 194.9 ± 10.5 g and the “Body weight change rate” value ([1]; 1.2 mg/kg/day, Day 6) was 5.12%. For the same compound, the Body weight ([1]; 1.2 mg/kg/day, Day 9) was 200.1 ± 12.1 g, the “Body weight change rate” value ([1]; 1.2 mg/kg/day, Day 9) was 5.09% and the Body weight ([1]; 1.2 mg/kg/day, Day 13) was 215.3 ± 11.3 g. For the same compound, the “Body weight change rate” value ([1]; 1.2 mg/kg/day, Day 13) was 10.02%, the Body weight ([1]; 1.2 mg/kg/day, Day 16) was 218.9 ± 12.3 g and the “Body weight change rate” value ([1]; 1.2 mg/kg/day, Day 16) was 8.42%. The Body weight ([1]; 1.2 mg/kg/day, Day 20) was 221.5 ± 14.8 g, the “Body weight change rate” value ([1]; 1.2 mg/kg/day, Day 20) was 5.63% and the Body weight ([1]; 1.2 mg/kg/day, Day 23) was 232.4 ± 16.4 g. For the same compound, the “Body weight change rate” value ([1]; 1.2 mg/kg/day, Day 23) was 7.64%, the Body weight ([1]; 1.2 mg/kg/day, Day 27) was 237.2 ± 15.4 g and the “Body weight change rate” value ([1]; 1.2 mg/kg/day, Day 27) was 8.51%. For the same compound, the Body weight [1, 3] was 175.3 ± 7.7 g, the “Body weight change rate” value [1, 3] was −1.57% and the Body weight ([1]; 1.2 mg/kg/day, Recovery day 5) was 237.7 ± 13.0 g. For the same compound, the “Body weight change rate” value ([1]; 1.2 mg/kg/day, Recovery day 5) was 3.44%, the Body weight ([1]; 1.2 mg/kg/day, Recovery day 12) was 244.8 ± 13.2 g and the “Body weight change rate” value ([1]; 1.2 mg/kg/day, Recovery day 12) was 3.51%. For the same compound, the Body weight ([1]; 1.2 mg/kg/day, Recovery day 19) was 259.9 ± 16.5 g, the “Body weight change rate” value ([1]; 1.2 mg/kg/day, Recovery day 19) was 3.13% and the Body weight ([1]; 1.2 mg/kg/day, Recovery day 26) was 261.8 ± 22.7 g. For the same compound, the “Body weight change rate” value ([1]; 1.2 mg/kg/day, Recovery day 26) was 1.67%, the Body weight ([1]; 2.4 mg/kg/day, Day 6) was 194.7 ± 11.9 g and the “Body weight change rate” value ([1]; 2.4 mg/kg/day, Day 6) was 5.02%. For the same compound, the Body weight ([1]; 2.4 mg/kg/day, Day 9) was 198.8 ± 14.7 g, the “Body weight change rate” value ([1]; 2.4 mg/kg/day, Day 9) was 4.41% and the Body weight ([1]; 2.4 mg/kg/day, Day 13) was 211.2 ± 13.0 g. The “Body weight change rate” value ([1]; 2.4 mg/kg/day, Day 13) was 7.92%, the Body weight ([1]; 2.4 mg/kg/day, Day 16) was 209.1 ± 13.2 g and the “Body weight change rate” value ([1]; 2.4 mg/kg/day, Day 16) was 3.57%. The Body weight ([1]; 2.4 mg/kg/day, Day 20) was 220.8 ± 15.5 g, the “Body weight change rate” value ([1]; 2.4 mg/kg/day, Day 20) was 5.29% and the Body weight ([1]; 2.4 mg/kg/day, Day 23) was 221.7 ± 19.8 g. The “Body weight change rate” value ([1]; 2.4 mg/kg/day, Day 23) was 2.69%, the Body weight ([1]; 2.4 mg/kg/day, Day 27) was 230.9 ± 19.3 g and the “Body weight change rate” value ([1]; 2.4 mg/kg/day, Day 27) was 5.63%. The Body weight [1, 4] was 179.1 ± 8.3 g, the “Body weight change rate” value [1, 4] was 0.56% and the Body weight ([1]; 2.4 mg/kg/day, Recovery day 5) was 230.1 ± 19.1 g. The “Body weight change rate” value ([1]; 2.4 mg/kg/day, Recovery day 5) was 0.13%, the Body weight ([1]; 2.4 mg/kg/day, Recovery day 12) was 241.1 ± 21.0 g and the “Body weight change rate” value ([1]; 2.4 mg/kg/day, Recovery day 12) was 1.95%. The Body weight ([1]; 2.4 mg/kg/day, Recovery day 19) was 253.1 ± 25.8 g, the “Body weight change rate” value ([1]; 2.4 mg/kg/day, Recovery day 19) was 0.44% and the Body weight ([1]; 2.4 mg/kg/day, Recovery day 26) was 261.1 ± 25.5 g.
